# Test results from patent US7879853B2, “4,6-disubstituted pyrimidines and their use as protein kinase inhibitors” (Bayer Schering Pharma AG, priority 2004, dated 2011).
row,Structure (SMILES),melting point
1,"Nc1ccccc1C(=O)Nc1ccc(Nc2cc(-c3cccc4c3oc3ccccc34)ncn2)cc1.O=C(O)C(F)(F)F [Compound 50, 2-Amino-N-[4-(6-dibenzofuran-4-yl-pyrimidin-4-ylamino)-phenyl]-benzamide trifluoroacetate]",136 to 138 °C
2,"NCCc1ccc(C(=O)Nc2ccc(Nc3cc(-c4cccc5c4oc4ccccc45)ncn3)cc2)cc1.O=C(O)C(F)(F)F [Compound 55, 4-(2-Amino-ethyl)-N-[4-(6-dibenzofuran-4-yl-pyrimidin-4-ylamino)-phenyl]-benzamide trifluoroacetate]",202 °C
3,"O=C(Nc1ccc(Nc2cc(-c3cccc4c3oc3ccccc34)ncn2)cc1)c1ccccc1 [Compound 7, N-[4-(6-Dibenzofuran-4-yl-pyrimidin-4-ylamino)-phenyl]-benzamide]",323 to 325 °C
4,"CC(C)(C)OC(=O)Nc1ccc(CC(=O)Nc2ccc(Nc3cc(-c4cccc5c4oc4ccccc45)ncn3)cc2)cc1 [Compound 21, tert-Butyl N-(4-{[4-(6-dibenzofuran-4-yl-pyrimidin-4-ylamino)-phenylcarbamoyl]-methyl}-phenyl)-carbamate]",> 320 °C
5,"CC(C)(C)OC(=O)NCc1ccc(C(=O)Nc2ccc(Nc3cc(-c4cccc5c4oc4ccccc45)ncn3)cc2)cc1 [Compound 17, tert-Butyl N-{4-[4-(6-dibenzofuran-4-yl-pyrimidin-4-ylamino)-phenylcarbamoyl]-benzyl}-carbamate]",311 to 321 °C
6,"CN1CCN(Cc2ccc(C(=O)Nc3ccc(Nc4cc(-c5cccc6c5oc5ccccc56)ncn4)cc3)cc2)CC1 [Compound 3, N-[4-(6-Dibenzofuran-4-yl-pyrimidin-4-ylamino)-phenyl]-4-(4-methyl-piperazin-1-ylmethyl)-benzamide]",270 to 274 °C
7,"CC(C)(C)OC(=O)Nc1cccc(C(=O)Nc2cccc(Nc3cc(-c4cccc5c4oc4ccccc45)ncn3)c2)c1 [Compound 28, tert-Butyl {3-[3-(6-dibenzofuran-4-yl-pyrimidin-4-ylamino)-phenylcarbamoyl]-phenyl}-carbamate]",160 to 163 °C
8,Nc1cccc(C(=O)Nc2cccc(Nc3cc(-c4cccc5c4oc4ccccc45)ncn3)c2)c1.O=C(O)C(F)(F)F,150 to 153 °C
9,"NCc1cc(C(=O)Nc2ccc(Nc3cc(-c4cccc5c4oc4ccccc45)ncn3)cc2)ccn1.O=C(O)C(F)(F)F [Compound 65, 2-Aminomethyl-N-[4-(6-dibenzofuran-4-yl-pyrimidin-4-ylamino)-phenyl]-isonicotinamide trifluoroacetate]",248 to 250 °C
10,"O=C(Nc1ccc(Nc2cc(-c3cccc4c3oc3ccccc34)ncn2)cc1)c1ccc(CN2CCOCC2)cc1 [Compound 13, N-[4-(6-Dibenzofuran-4-yl-pyrimidin-4-ylamino)-phenyl]-4-morpholin-4-ylmethyl-benzamide]",> 250 °C
11,"CN(C)c1cccc(C(=O)Nc2cccc(Nc3cc(-c4cccc5c4oc4ccccc45)ncn3)c2)c1 [Compound 48, N-[3-(6-Dibenzofuran-4-yl-pyrimidin-4-ylamino)-phenyl]-3-dimethylamino-benzamide]",245 to 251 °C
12,"COCCC(CCOC)c1cccc(C(=O)Nc2ccc(Nc3cc(-c4cccc5c4oc4ccccc45)ncn3)cc2)c1 [Compound 16, N-[4-(6-Dibenzofuran-4-yl-pyrimidin-4-ylamino)-phenyl]-3-[3-methoxy-1-(2-methoxyethyl)-propyl]-benzamide]",186 to 188 °C
13,"CN(C)c1cccc(C(=O)Nc2ccc(Nc3cc(-c4cccc5c4oc4ccccc45)ncn3)cc2)c1 [Compound 10, N-[4-(6-Dibenzofuran-4-yl-pyrimidin-4-ylamino)-phenyl]-3-dimethylamino-benzamide]",225 to 232 °C
14,"NCc1ccc(CC(=O)Nc2ccc(Nc3cc(-c4cccc5c4oc4ccccc45)ncn3)cc2)cc1.O=C(O)C(F)(F)F [Compound 66, 2-(4-Aminomethyl-phenyl)-N-[4-(6-dibenzofuran-4-yl-pyrimidin-4-ylamino)-phenyl]-acetamide trifluoroacetate]",251 to 255 °C
15,"CC(C)(C)OC(=O)Nc1ccccc1C(=O)Nc1ccc(Nc2cc(-c3cccc4c3oc3ccccc34)ncn2)cc1 [Compound 18, tert-Butyl N-{2-[4-(6-Dibenzofuran-4-yl-pyrimidin-4-ylamino)-phenylcarbamoyl]-phenyl}-carbamate]",> 340 °C
16,"CC(C)(C)OC(=O)NCc1ccnc(C(=O)Nc2ccc(Nc3cc(-c4cccc5c4oc4ccccc45)ncn3)cc2)c1 [Compound 24, tert-Butyl N-{2-[4-(6-Dibenzofuran-4-yl-pyrimidin-4-ylamino)-phenylcarbamoyl]-pyridin-4-ylmethyl}-carbamate]",245 °C
17,"O=C(Nc1ccc(Nc2cc(-c3cccc4c3oc3ccccc34)ncn2)cc1)c1ccc(N2CCOCC2)nc1 [Compound 15, N-[4-(6-Dibenzofuran-4-yl-pyrimidin-4-ylamino)-phenyl]-6-morpholin-4-yl-nicotinamide]",310 to 312 °C

row,Structure (SMILES),melting point
1,"CC(C)(C)OC(=O)NCCc1ccc(C(=O)Nc2cccc(Nc3cc(-c4cccc5c4oc4ccccc45)ncn3)c2)cc1 [Compound 26, tert-Butyl N-(2-{4-[3-(6-dibenzofuran-4-yl-pyrimidin-4-ylamino)-phenylcarbamoyl]-phenyl}-ethyl)-carbamate]",239 to 241 °C
2,"CN1CCN(c2ccc(C(=O)Nc3ccc(Nc4cc(-c5cccc6c5oc5ccccc56)ncn4)cc3)cc2)CC1 [Compound 14, N-[4-(6-Dibenzofuran-4-yl-pyrimidin-4-ylamino)-phenyl]-4-(4-methyl-piperazin-1-yl)-benzamide]",304 to 319 °C
3,"CC(C)(C)OC(=O)NCc1cccc(C(=O)Nc2ccc(Nc3cc(-c4cccc5c4oc4ccccc45)ncn3)cc2)c1 [Compound 22, tert-Butyl N-{3-[4-(6-Dibenzofuran-4-yl-pyrimidin-4-ylamino)-phenylcarbamoyl]-benzyl}-carbamate]",237 °C
4,"CC(C)(C)OC(=O)NCCc1ccc(C(=O)Nc2ccc(Nc3cc(-c4cccc5c4oc4ccccc45)ncn3)cc2)cc1 [Compound 23, tert-Butyl N-(2-{4-[4-(6-Dibenzofurane-4-yl-pyrimidin-4-ylamino)-phenylcarbamoyl]phenyl}-ethyl)-carbamate]",> 250 °C
5,"NCC(C(=O)Nc1cccc(Nc2cc(-c3cccc4c3oc3ccccc34)ncn2)c1)c1ccc(Cl)c(Cl)c1.O=C(O)C(F)(F)F (stereo not drawn) [Compound 76, 3-Amino-N-[3-(6-dibenzofuran-4-yl-pyrimidin-4-ylamino)-phenyl]-2-(3,4-dichlorophenyl)-propionamide trifluoroacetat]",138 to 145 °C
6,"NCCc1ccc(C(=O)Nc2cccc(Nc3cc(-c4cccc5c4oc4ccccc45)ncn3)c2)cc1.O=C(O)C(F)(F)F [Compound 58, 4-(2-Amino-ethyl)-N-[3-(6-dibenzofuran-4-yl-pyrimidin-4-ylamino)-phenyl]-benzamide trifluoroacetate]",87 to 90 °C
7,Nc1ccc(CC(=O)Nc2ccc(Nc3cc(-c4cccc5c4oc4ccccc45)ncn3)cc2)cc1.O=C(O)C(F)(F)F,125 to 130 °C
8,"CN(C)c1ccc(C(=O)Nc2ccc(Nc3cc(-c4cccc5c4oc4ccccc45)ncn3)cc2)cc1 [Compound 2, N-[4-(6-Dibenzofuran-4-yl-pyrimidin-4-ylamino)-phenyl]-4-dimethylamino-benzamide]",285 to 300 °C
9,"CC(C)(C)OC(=O)NCc1cccc(C(=O)Nc2cccc(Nc3cc(-c4cccc5c4oc4ccccc45)ncn3)c2)c1 [Compound 29, tert-Butyl N-{3-[3-(6-Dibenzofuran-4-yl-pyrimidin-4-ylamino)-phenylcarbamoyl]-benzyl}-carbamate]",216 to 219 °C
10,"NCC(C(=O)Nc1ccc(Nc2cc(-c3cccc4c3oc3ccccc34)ncn2)cc1)c1ccc(Cl)c(Cl)c1.O=C(O)C(F)(F)F (stereo not drawn) [Compound 75, 3-Amino-N-[4-(6-dibenzofuran-4-yl-pyrimidin-4-ylamino)-phenyl]-2-(3,4-dichloro-phenyl)-propionamide trifluoroacetate]",195 to 205 °C
11,"CC(C)(C)OC(=O)N1CCCC(c2ccc(C(=O)Nc3ccc(Nc4cc(-c5cccc6c5oc5ccccc56)ncn4)cc3)cc2)C1 (stereo not drawn) [Compound 20, tert-Butyl 3-{4-[4-(6-Dibenzofuran-4-yl-pyrimidin-4-ylamino)-phenylcarbamoyl]-phenyl}-piperidin-1-carboxylate]",259 to 261 °C
12,"CC(C)(C)OC(=O)NCc1ccc(C(=O)Nc2cccc(Nc3cc(-c4cccc5c4oc4ccccc45)ncn3)c2)cc1 [Compound 25, tert-Butyl {4-[3-(6-dibenzofuran-4-yl-pyrimidin-4-ylamino)-phenylcarbamoyl]-benzyl}-carbamate]",233 to 236 °C
13,"CC(C)(C)OC(=O)Nc1ccc(C(=O)Nc2cccc(Nc3cc(-c4cccc5c4oc4ccccc45)ncn3)c2)cc1 [Compound 30, tert-Butyl N-{4-[3-(6-Dibenzofuran-4-yl-pyrimidin-4-ylamino)-phenylcarbamoyl]-phenyl}-carbamate]",214 °C
14,"CN(C)c1ccccc1C(=O)Nc1ccc(Nc2cc(-c3cccc4c3oc3ccccc34)ncn2)cc1 [Compound 5, N-[4-(6-Dibenzofuran-4-yl-pyrimidin-4-ylamino)-phenyl]-2-dimethylamino-benzamide]",246 to 249 °C
15,"CC(C)(C)c1ccc(C(=O)Nc2ccc(Nc3cc(-c4cccc5c4oc4ccccc45)ncn3)cc2)cc1 [Compound 8, 4-tert-Butyl-N-[4-(6-dibenzofuran-4-yl-pyrimidin-4-ylamino)-phenyl]-benzamide]",261 to 263 °C
16,"NCc1ccc(C(=O)Nc2ccc(Nc3cc(-c4cccc5c4oc4ccccc45)ncn3)cc2)cn1.O=C(O)C(F)(F)F [Compound 64, 6-Aminomethyl-N-[4-(6-dibenzofuran-4-yl-pyrimidin-4-ylamino)-phenyl]-nicotinamide trifluoroacetate]",145 to 150 °C
